These results are taken from patent US4870071A, “Prophylactic and therapeutic agnet for hepatic disorder” (Senju Pharmaceutical Co., Ltd., priority 1986, dated 1989).

SMILES strings stand for the structures. “Also recorded” adds a separate entry of the source.

Data set [1] relates to acetaminophen-induced hepatic disorder. The data set can be described thus: Effect on acetaminophen-induced hepatic disorder. Conditions: 500 mg/kg oral, 1 hour before acetaminophen, 24 hours. Type of data set: in vivo, Male SD rats. How it is done: In this experiment, cysteineglucuronolactone and cysteineglucuronic acid salts (CG groups) were tested for their effects on acetaminophen-induced hepatic disorder in terms of their ability to suppress elevations in serum GOT, GPT, LDH and ALP. […] In the control and normal groups, 10 ml/kg of 0.5% CMC was orally administered and, in the CG groups, 500 mg/10 ml/kg of the respective compound was orally administered. An hour later, 400 mg/15 ml/kg of acetaminophen was intraperitoneally administered to the control and CG groups while 15 ml/kg of physiological saline was intraperitoneally administered to the normal group.

Data set [2] has as its system CCl4-induced acute hepatic disorder. The data set can be described thus: Effect on CCl4-induced acute hepatic disorder, (A)-2 (dose). It is filed as in vivo, Male Wistar rats. Conditions: for s-GOT / s-GPT: 10 hours before CCl4. The protocol: Ten hours later, CCl4 was intraperitoneally administered in a dose of 0.08 ml/kg. About 18 hours thereafter, the blood was sampled for the assay of s-GOT and s-GPT.

Data set [3] is described as follows: Solubility of the calcium salt. Type of data set: physicochemical.
The next data set relates to mice. The data set can be described thus: Acute toxicity in mice, intravenous injection (LD50). From the text:
Acute toxicity of the compounds according
to the invention in terms of LD50
Referring to the above table, the injection No. 1 was adjusted to pH 7.0-7.2 by adding sodium carbonate after dissolution of the sample.

Data set [4] relates to CCl4-induced chronic hepatic disorder. Kind of data set: Effect on CCl4-induced chronic hepatic disorder. It is filed as in vivo, Male SD rats. Conditions: for Pathological examination of the liver: H.E. staining, compared with control group. The protocol:
Male SD rats were used in two groups, namely the control group and the CGCa group.
CCl4 was dissolved in olive oil in a concentration of 10% (w/v) and the solution was intraperitoneally administered in a dose of 5 ml/kg twice a week (Tuesday and Friday) for 10 weeks. Three days after the last CCl4 administration, blood samples were collected in each group for the assay of s-GOT, s-GPT, etc. Assay of liver hydroxyproline (HyP) and pathological examination of the liver following H.E. staining were also performed.

A short description of data set [5]: Acute oral toxicity test in mice (LD50). Conditions: mouse, in vivo.
Data set [6] has as its system galactosamine-induced hepatopathy. Kind of data set: Effect on galactosamine-induced hepatopathy. It is filed as in vivo, Male Wistar rats. How it is done:
Galactosamine-induced hepatopathy is caused by inhibition of glycoprotein and protein metabolisms and has been used as an experimental model since it pathologically resembles viral hepatitis.
(§1) Male Wistar rats were used after fasting.
Fifteen (15) hours later, a second administration was performed in the same dose. […] Twenty-four (24) hours thereafter, blood samples were collected for the assay of s-GOT and s-GPT.

The subject of data set [7] is CCl4-induced acute hepatic disorder. Kind of data set: Effect on CCl4-induced acute hepatic disorder, (A)-1 (time of pre-administration). Type of data set: in vivo, Wistar-strain male rats. The protocol: Wistar-strain male rats were used after fasting.
The hepatic disorder inducer CCl4 was intraperitoneally administered to each group in a dose of 0.08 ml/kg (diluted with olive oil so as to give a dose volume of 5 ml/kg) and, after about 18 hours, the blood was sampled for the assay of s-GOT and s-GPT.

In data set [8] the test system is alcohol-induced hepatopathy. Kind of data set: Effect on alcohol-induced hepatopathy (liver TG). It is filed as in vivo, Male Wistar rats. The protocol: as §1
After 13 hours, 20% alcohol was orally administered at 5 g/kg. After 8 hours, the liver was removed and TG was determined by the acetylacetone method.

Data set [9] in a line: Transfer to plasma and plasma level duration after oral administration. Conditions: for Transfer to bloodstream on oral administration: rabbit, in vivo. It is filed as in vivo, rabbits. The protocol:
The sera separated from the blood samples were deproteinized with trichloroacetic acid and, then, free cysteine in the sera as well as cysteine resulting from hydrolysis following heating was determined by fluorescence labeling and high performance liquid chromatography (HPLC).

In another data set the test system is hepatic disorder models. The data set can be described thus: Hepatic disorder models, overall statement. Type of data set: in vivo. Conditions: oral.
Data set [10] relates to carbon tetrachloride-induced hepatic disorder. The data set can be described thus: Further experiments with CGL and CGNa: suppression of s-GOT and s-GPT after CCl4. Type of data set: in vivo, rats. Conditions: 2.0 g/kg oral 1 hour earlier than CCl4 0.08 ml/kg i.p.; versus control group. How it is done:
In further experiments in which cysteineglucuronolactone (CGL) and sodium cysteineglucuronate (CGNa) were respectively administered orally in a dose of 2.0 g/kg 1 hour earlier than intraperitoneal administration of 0.08 ml/kg of CCl4, the percent suppressions of s-GOT and s-GPT obtained as compared with the control group were as shown below.

[11] abbreviates: 5% CGCa in diet, CCl4 twice a week for 10 weeks.
Setting [12] is: 2.0 g/kg oral twice, galactosamine hydrochloride 400 mg/kg i.p., 24 hours.
Setting [13] is: CGCa I group, 2.0 g/kg oral 12 hours before CCl4.
The mark [14] stands for this setting: CGCa II group, 2.0 g/kg oral 10 hours before CCl4.
Where [15] appears, read: CGCa III group, 2.0 g/kg oral 8 hours before CCl4.
[16] abbreviates: CGCa IV group, 2.0 g/kg oral 6 hours before CCl4.
Where [17] appears, read: CGCa V group, 2.0 g/kg oral 4 hours before CCl4.

In general, LD50 refers to the dose expected to kill half of the subjects tested. A higher LD50 goes with a less toxic substance. As to `O=C(O)C1CSC(C(O)C(O)C(O)C(O)C(=O)O)N1` (stereo not shown) [CGCa, Calcium cysteineglucuronate], the ALP is recorded as 11.4 ± 1.52 BL (BesseyLowry) units in data set [1] and 59.5 ± 23.83 King-Armstrong units in [4] (setting [11]). Besides, the LDH in data set [1] stood at 705.1 ± 283.3 Wroblewski units; in data set [4] (setting [11]), 491.7 ± 312.24 Wroblewski units. Moreover, the s-GOT in data set [1] came to 284.2 ± 136.3 Karmen units; in data set [2] (CGCa I group, 1.02 g/kg oral), 1755.6 ± 784.49 Karmen units; in data set [2] (CGCa II group, 1.43 g/kg oral), 1192.0 ± 264.07 Karmen units; in data set [2] (CGCa III group, 2.0 g/kg oral), 1106.2 ± 224.53 Karmen units; in [4] (setting [11]), 358.9 ± 157.13 Karmen units; in data set [6] (setting [12]) it was 1643.1 ± 480.43 Karmen units. For the same molecule, the s-GOT stood at 1134.9 ± 361.57 Karmen units in data set [7] (setting [13]); 921.6 ± 198.34 Karmen units in [7] (setting [14]); 929.0 ± 201.14 Karmen units in data set [7] (setting [15]); 1493.3 ± 480.60 Karmen units in data set [7] (setting [16]); 1453.0 ± 515.58 Karmen units in data set [7] (setting [17]). The s-GPT came out at 121.7 ± 33.7 Karmen units in [1]; 427.2 ± 131.72 Karmen units in data set [2] (CGCa I group, 1.02 g/kg oral); 309.5 ± 86.25 Karmen units in [2] (CGCa II group, 1.43 g/kg oral); 299.9 ± 79.85 Karmen units in [2] (CGCa III group, 2.0 g/kg oral); 130.3 ± 53.56 Karmen units in data set [4] (setting [11]); 702.3 ± 223.08 Karmen units in data set [6] (setting [12]). Also, the s-GPT in data set [7] (setting [13]) was 310.5 ± 68.08 Karmen units; in data set [7] (setting [14]), 308.5 ± 42.30 Karmen units; in data set [7] (setting [15]) it was 328.2 ± 105.72 Karmen units; in [7] (setting [16]) it was 502.4 ± 210.66 Karmen units; in data set [7] (setting [17]), 516.3 ± 166.50 Karmen units. The “increase in s-GOT” value in data set [2] (1.43 g/kg) is given as “tendency toward suppression”; in data set [2] (2.0 g/kg, p<0.05), “significantly suppressed (p<0.05)”. Besides, the “increase of s-GPT (in words)” value in data set [2] (1.43 g/kg, p<0.05) is “significantly suppressed”. For the same molecule, the “increase in s-GPT (in words)” value in data set [2] (2.0 g/kg, p<0.05) is given as “significantly suppressed (p<0.05)”. The “Solubility (in words)” value in [3] is listed as “low solubility”. Besides, the “Acute toxicity (in words)” value in the data set with mice is on record as “somewhat increased toxicity”. In addition, the “elevation of LDH (in words)” value in data set [4] (0.05<p<0.10) is “tended to suppress”. Besides, the Albumin in data set [4] (setting [11]) came out at 3.4 ± 0.28 g/dL. For the same molecule, the Cholinesterase in [4] (setting [11]) is 0.014 ± 5.16 × 10^-3 ΔpH. In data set [4] (setting [11]), the “Liver HyP” value amounted to 371.6 ± 93.05 µg/g. In [4] (setting [11]), this molecule displayed a Serum iron of 215.0 ± 39.01 µg/dL. In data set [4] (setting [11]), this molecule came in with a Total bilirubin of 0.35 ± 0.108 mg/dL. The molecule also yielded a γ-GTP in [4] (setting [11]) of 3.0 ± 1.50 mU/ml. Further, the “Pathological examination of the liver” value in [4] is “although vacuolar degeneration was found, the original lobular structure of the liver was preserved without evidence of hepatocirrhosis, such as formation of pseudolobules; also recorded: Necrosis was scattered and cellular infiltration was slight as compared with the control group; also recorded: effective against the damage and fibrosis of hepatocytes”; in [4] (listed as CGC2), “suppression of the fibrosis”. Also, the “elevation of hydroxyproline (HyP) (in words)” value in data set [4] (liver, p<0.05) is given as “significantly suppressed”. The “elevation of s-GOT (in words)” value in data set [4] (p<0.05) is reported as “significantly suppressed”; in data set [6] (oral, p<0.05), “inhibited the elevations significantly (p<0.05)”. Further, the “elevation of s-GPT (in words)” value was “significantly suppressed” in [4] (p<0.05) and “inhibited the elevations significantly (p<0.05)” in [6] (oral, p<0.05). The molecule further showed an LD50 in [5] of 7500 mg/kg. Moreover, the “CCl4-induced increase of s-GPT (in words)” value in data set [7] (10 or 12 hours earlier administration, p<0.05) is recorded as “significantly suppressed”. Further, the “CCl4-induced increase of s-GOT (in words)” value in data set [7] (administered 8 to 10 hours earlier than CCl4, p<0.05) is on record as “significantly suppressed (p<0.05)”. Moreover, in data set [8] (2.0 g/kg oral 13 hours before 20% alcohol 5 g/kg, 8 hours after alcohol), the “Liver TG” value was 4.4 ± 1.29 mg/g liver. Further, the “increase of liver TG level due to alcohol (in words)” value in [8] (oral, p<0.05) is “significantly suppressed this increase (p<0.05)”. In addition, the “Lapse of time until free cysteine content in plasma began to increase” value in data set [9] (rabbits, oral 500 mg/kg) came out at 2 h. Besides, the “Free cysteine content in plasma after 24 hours” value in data set [9] (rabbits, oral 500 mg/kg, 24 hours) is on record as “at a normal value”. In addition, the “Duration of increased blood cysteine levels compared with equimolar cysteine” value in data set [9] (rabbits, oral, versus equimolar amount of cysteine) is recorded as “increased blood cysteine levels can be maintained for a prolonged period”.
With `O=C(O)C1CSC(C(O)C(O)C(O)C(O)C(=O)O)N1` (stereo not shown) [cysteineglucuronic acid, Cysteineglucuronic acid], in the data set on hepatic disorder models, the “depression of GOT (in words)” value is “significant depressions” and the “depression of GPT (in words)” value is listed as “significant depressions”. In addition, the “Transfer to bloodstream on oral administration” value in data set [9] was “translocated into the bloodstream”.
For the molecule `O=C(O)C1CSC(C(O)C(O)C(O)C(O)C(=O)O)N1` (stereo not shown) [CGNa, Sodium cysteineglucuronate], in [1], the ALP is 10.4 ± 1.22 BL (BesseyLowry) units, the LDH is 557.2 ± 240.7 Wroblewski units, the s-GOT was found to be 180.1 ± 63.0 Karmen units and the s-GPT was 78.4 ± 13.7 Karmen units. In [10], the “Suppression of s-GOT” value is recorded as 37.2% and the “Suppression of s-GPT” value is 39.3%.
Take `O=C(O)C1CSC(C(O)C2OC(=O)C(O)C2O)N1` (stereo not shown) [CGL, Cysteineglucuronolactone]: in data set [1], the ALP was 10.7 ± 1.04 BL (BesseyLowry) units, the LDH was 540.3 ± 238.1 Wroblewski units, the s-GOT worked out at 185.0 ± 83.3 Karmen units and the s-GPT is listed as 85.5 ± 22.7 Karmen units. Besides, in the data set on hepatic disorder models, the “depression of GOT (in words)” value is given as “significant depressions” and the “depression of GPT (in words)” value was “significant depressions”. In [10], the “Suppression of s-GOT” value worked out at 35.0% and the “Suppression of s-GPT” value stood at 34.8%. In data set [9], the “Transfer to bloodstream on oral administration” value is listed as “translocated into the bloodstream”.
Take `O=C(O)C1CSC(C(O)C(O)C(O)C(O)C(=O)O)N1` (stereo not shown) [CGMg, Magnesium cysteineglucuronate]: in data set [1], the ALP is 12.8 ± 1.20 BL (BesseyLowry) units, the LDH was determined as 857.5 ± 296.1 Wroblewski units, the s-GOT amounted to 386.3 ± 88.1 Karmen units and the s-GPT is recorded as 141.9 ± 27.5 Karmen units.
